In patent US8680113B2, “BMI-1 protein expression modulators” (PTC Therapeutics, Inc., priority 2008, dated 2014) one finds IC50 data, which are given here for 29 compounds.

Some results are limits rather than exact numbers.

The assay deals with Bmi-1. Kind of assay: Sandwich ELISA Assay (Bmi-1 ELISA in HT-1080 cells). The assay is classed as cell-based, human. The protocol:
Cell Seeding and Compound Treatment (Day 1):
HT-1080 cells were seeded at 8000 cells/well (50 uL) in 96-well tissue culture plates. After the cells become adherent (3-4 hours), 2× diluted stocks of compounds in 50 uL DMEM containing 1% DMSO (final DMSO concentration was 0.5%) were added and the plates were incubated at 37° C. under 5% CO2 for 40-48 hours
ELISA Plate First Antibody Preparation (Day 2):
The First Antibody (Millipore Mouse, monoclonal to mouse Bmi-1, clone F6, catalog #05-637) diluted to 2 ug/mL in PBS was added (100 uL) to each well of a Nunc MaxiSorp 96-well ELISA plate. The plate was covered with a plate seal and allowed to stand overnight.
Cell Lysate Preparation (Day 3):
Fresh 1× Lysis buffer was prepared on the day of the assay as follows: 1 mM EDTA, 150 mM NaCl, 0.5% Triton-X 100, 10 mM NaF, 20 mM B-Glycerophosphate, 1 mM DTT (in PBS, pH 7.2-7.4) and 1×HALT protease inhibitor cocktail (Pierce #78410).
1× Lysis Buffer (40 uL) was added to each well and the plate was shaken for 5-10 minutes on an orbital shaker to allow cell lysis, then Diluent (1% BSA in PBS in 0.5% NP40) (100 uL) was added to each well.
The Bmi-1 standard curve was prepared in Diluent at the following concentrations of protein: 8000, 4000, 2000, 1000, 500, 250, 125, 0 pg/mL The Bmi-1 Recombinant Protein Standard (Novus Biologicals PCGF4 Recombinant Protein (P01), catalog #H00000648-P01) used in the standard curve was stored at −80° C., and on first thaw, diluted to 10 ug/uL in Blocking Buffer (1% BSA in PBS; BSA: Fisher Scientific Catalog #1600-100) before being aliquoted and refrozen at −80° C. Aliquots can be kept at 4° C. and reused after first thaw, but only for 1-2 weeks. The Bmi-1 Recombinant Protein Standard contains a GST-fusion tag and thus will show up on western blots around 70 Kda.
The prepared ELISA plate was washed 3× with Wash Buffer (0.05% Tween-20 in PBS). The final wash was removed from the plate and the plate was blotted dry on paper towels. Blocking Buffer (300 uL) (1% BSA in PBS) was added per well. The plate was covered with a plate seal and incubated at room temperature for 1 hour. The blocked plate was washed 3× with Wash Buffer, the final wash was removed and the plate was blotted dry on paper towels. The previously prepared samples and standards were added (at 100 uL/well) and the plate was covered with a plate seal and incubated at 4° C. overnight.
The prepared ELISA plate was removed from 4° C., incubated at room temperature for 30 minutes, then washed and blotted dry as previously described for Day 3. The Second Antibody (Cell Signaling Rabbit anti-Bmi-1, Cat#2830) diluted to 1:600 in Blocking Buffer was added (100 uL) to each well, except as needed for background control wells. The plate was covered with a plate seal and incubated for 1.5 hrs at room temperature.
The ELISA plate was washed and blotted dry as previously described. The Third Antibody (Cell Signaling HRP conjugated anti-rabbit IgG (CellSignaling, Cat#:7074) diluted to 1:300 in Blocking Buffer was added (100 uL) to each well, except as needed for background control wells. The plate was incubated for 1 hr at room temperature.
The plate was washed and blotted dry as previously described, then prepared TMB substrate (TMB substrate kit, Pierce catalog #34021) (prepared by mixing kit reagents 1:1) (100 uL) was added per well. The plate was incubated for 20-30 minutes at room temperature in the dark, then Stop Solution (2 M sulfuric acid in water) (50 uL) was added per well. The plates were read at OD450 (experimental) and OD570 (reference).
A general note: ELISA stands for enzyme-linked immunosorbent assay.
`CCOc1ccc(Nc2nc(-c3c(C)nc4ccc(Cl)cn34)cs2)cc1` [Cpd 88, 4-(6-chloro-2-methylimidazo[1,2-a]pyridin-3-yl)-N-(4-ethoxyphenyl)-1,3-thiazol-2-amine] showed an IC50 of less than 500 nM.
The result for `Cc1ccc(Nc2nc(-c3c(C)nc4ccc(Cl)cn34)cs2)cc1` [Cpd 89, 4-(6-chloro-2-methylimidazo[1,2-a]pyridin-3-yl)-N-(4-methylphenyl)-1,3-thiazol-2-amine] reads less than 500 nM.
`CCc1ccc(Nc2nc(-c3c(C)nc4ccc(Cl)cn34)cs2)cc1` [Cpd 90, 4-(6-chloro-2-methylimidazo[1,2-a]pyridin-3-yl)-N-(4-ethylphenyl)-1,3-thiazol-2-amine] displayed a 50% inhibitory concentration (IC50) of less than 500 nM.
The result for `Cc1nc2ccc(Cl)cn2c1-c1csc(Nc2ccc(C(C)C)cc2)n1` [Cpd 91, 4-(6-chloro-2-methylimidazo[1,2-a]pyridin-3-yl)-N-[4-(propan-2-yl)phenyl]-1,3-thiazol-2-amine] reads less than 500 nM.
On to `Cc1nc2ccc(Cl)cn2c1-c1csc(Nc2ccc(O)cc2)n1` [Cpd 92, 4-{[4-(6-chloro-2-methylimidazo[1,2-a]pyridin-3-yl)-1,3-thiazol-2-yl]amino}phenol], for which the IC50 was less than 500 nM.
`COCCOc1ccc(Nc2nc(-c3c(C)nc4ccc(Cl)cn34)cs2)cc1` [Cpd 93, 4-(6-chloro-2-methylimidazo[1,2-a]pyridin-3-yl)-N-[4-(2-methoxyethoxy)phenyl]-1,3-thiazol-2-amine]: the concentration for half-maximal inhibition (IC50) was less than 500 nM.
The compound `Cc1nc2c(O)cccn2c1-c1csc(Nc2ccc3c(c2)OCO3)n1` [Cpd 94, 3-[2-(1,3-benzodioxol-5-ylamino)-1,3-thiazol-4-yl]-2-methylimidazo[1,2-a]pyridin-8-ol] gave an IC50 of less than 500 nM.
Regarding `COc1ccc(Nc2nc(-c3c(C)nc4ccc(Cl)cn34)cs2)cc1Cl` [Cpd 95, N-(3-chloro-4-methoxyphenyl)-4-(6-chloro-2-methylimidazo[1,2-a]pyridin-3-yl)-1,3-thiazol-2-amine], the IC50 was less than 500 nM.
Next, `COc1ccc(Nc2nc(-c3c(C)nc4ccc(Cl)cn34)cs2)cc1F` [Cpd 96, 4-(6-chloro-2-methylimidazo[1,2-a]pyridin-3-yl)-N-(3-fluoro-4-methoxyphenyl)-1,3-thiazol-2-amine]: less than 500 nM; `CC(=O)Nc1ccc(Nc2nc(-c3c(C)nc4ccc(Cl)cn34)cs2)cc1` [Cpd 97, N-(4-{[4-(6-chloro-2-methylimidazo[1,2-a]pyridin-3-yl)-1,3-thiazol-2-yl]amino}phenyl)acetamide]: less than 500 nM; `Cc1nc2ccc(Cl)cn2c1-c1csc(Nc2c(Cl)cccc2Cl)n1` [Cpd 98, 4-(6-chloro-2-methylimidazo[1,2-a]pyridin-3-yl)-N-(2,6-dichlorophenyl)-1,3-thiazol-2-amine]: less than 500 nM.
The compound `CC(=O)c1ccc(Nc2nc(-c3c(C)nc4ccc(Br)cn34)cs2)cc1` [Cpd 99, 1-(4-{[4-(6-bromo-2-methylimidazo[1,2-a]pyridin-3-yl)-1,3-thiazol-2-yl]amino}phenyl)ethanone] yielded a 50% inhibitory concentration (IC50) of less than 500 nM.
The result for `Cc1nc2ccc(Br)cn2c1-c1csc(Nc2ccc(Cl)cc2)n1` [Cpd 100, 4-(6-bromo-2-methylimidazo[1,2-a]pyridin-3-yl)-N-(4-chlorophenyl)-1,3-thiazol-2-amine] reads less than 500 nM; that for `Cc1nc2ccc(Br)cn2c1-c1csc(Nc2ccc(I)cc2)n1` [Cpd 101, 4-(6-bromo-2-methylimidazo[1,2-a]pyridin-3-yl)-N-(4-iodophenyl)-1,3-thiazol-2-amine], less than 500 nM.
In turn, `Cc1nc2ccc(Br)cn2c1-c1csc(Nc2ccc(Br)cc2)n1` [Cpd 102, 4-(6-bromo-2-methylimidazo[1,2-a]pyridin-3-yl)-N-(4-bromophenyl)-1,3-thiazol-2-amine] had an IC50 of less than 500 nM.
The compound `COc1ccc(Nc2nc(-c3c(C)nc4ccc(Br)cn34)cs2)cc1Cl` [Cpd 103, 4-(6-bromo-2-methylimidazo[1,2-a]pyridin-3-yl)-N-(3-chloro-4-methoxyphenyl)-1,3-thiazol-2-amine] came in with an IC50 of less than 500 nM.
Turning to `COc1ccc(Nc2nc(-c3c(C)nc4ccc(Br)cn34)cs2)cc1F` [Cpd 104, 4-(6-bromo-2-methylimidazo[1,2-a]pyridin-3-yl)-N-(3-fluoro-4-methoxyphenyl)-1,3-thiazol-2-amine], the IC50 was less than 500 nM.
The result for `COc1ccc(Nc2nc(-c3cnc4ccc(Cl)cn34)cs2)cc1` [Cpd 105, 4-(6-chloroimidazo[1,2-a]pyridin-3-yl)-N-(4-methoxyphenyl)-1,3-thiazol-2-amine] reads less than 500 nM.
For `CN(C)c1ccc(Nc2nc(-c3cnc4ccc(Cl)cn34)cs2)cc1` [Cpd 106, N′-[4-(6-chloroimidazo[1,2-a]pyridin-3-yl)-1,3-thiazol-2-yl]-N,N-dimethylbenzene-1,4-diamine], the IC50 is less than 500 nM.
As to `CC(=O)c1ccc(Nc2nc(-c3cnc4ccc(Cl)cn34)cs2)cc1` [Cpd 107, 1-(4-{[4-(6-chloroimidazo[1,2-a]pyridin-3-yl)-1,3-thiazol-2-yl]amino}phenyl)ethanone], the concentration for half-maximal inhibition (IC50) is less than 500 nM.
For `Clc1ccc2ncc(-c3csc(Nc4ccc(I)cc4)n3)n2c1` [Cpd 108, 4-(6-chloroimidazo[1,2-a]pyridin-3-yl)-N-(4-iodophenyl)-1,3-thiazol-2-amine], the IC50 is less than 500 nM.
In turn, `COc1ccc(Nc2nc(-c3cnc4ccc(Cl)cn34)cs2)cc1Cl` [Cpd 109, 4-(6-chloroimidazo[1,2-a]pyridin-3-yl)-N-(3-chloro-4-methoxyphenyl)-1,3-thiazol-2-amine] showed a half-maximal inhibitory concentration (IC50) of less than 500 nM.
`COc1ccc(Nc2nc(-c3cnc4ccc(Cl)cn34)cs2)cc1F` [Cpd 110, 4-(6-chloroimidazo[1,2-a]pyridin-3-yl)-N-(3-fluoro-4-methoxyphenyl)-1,3-thiazol-2-amine] gave an IC50 of less than 500 nM.
`Cc1nc2ccc(Cl)cn2c1-c1csc(Nc2ccc(Cl)c(Cl)c2)n1` [Cpd 111, 4-(6-chloro-2-methylimidazo[1,2-a]pyridin-3-yl)-N-(3,4-dichlorophenyl)-1,3-thiazol-2-amine] gave an IC50 of less than 500 nM.
`Cc1nc2ccc(Cl)cn2c1-c1csc(Nc2ccc(C(C)(C)C)cc2)n1` [Cpd 112, N-(4-tert-butylphenyl)-4-(6-chloro-2-methylimidazo[1,2-a]pyridin-3-yl)-1,3-thiazol-2-amine] showed a half-maximal inhibitory concentration (IC50) of less than 500 nM.
With `Cc1nc2ccccn2c1-c1ccnc(Nc2ccc(Cl)cc2)n1` [Cpd 113, N-(4-chlorophenyl)-4-(2-methylimidazo[1,2-a]pyridin-3-yl)pyrimidin-2-amine], the IC50 was less than 500 nM.
Next, `Cc1nc2ccccn2c1-c1ccnc(Nc2ccc(Br)cc2)n1` [Cpd 114, N-(4-bromophenyl)-4-(2-methylimidazo[1,2-a]pyridin-3-yl)pyrimidin-2-amine]: less than 500 nM; `COc1ccc(Nc2nccc(-c3c(C)nc4ncccn34)n2)cc1` [Cpd 115, N-(4-methoxyphenyl)-4-(2-methylimidazo[1,2-a]pyrimidin-3-yl)pyrimidin-2-amine]: less than 500 nM.
In turn, `CCOc1ccc(Nc2nccc(-c3c(C)nc4ncccn34)n2)cc1` [Cpd 116, N-(4-ethoxyphenyl)-4-(2-methylimidazo[1,2-a]pyrimidin-3-yl)pyrimidin-2-amine] registered an IC50 of less than 500 nM.

By IC50 is commonly meant the point on the concentration scale where inhibition reaches its midpoint. Low readings indicate greater potency in that assay, high ones weaker potency in that assay.
